From patent publication US6251897A, “6-phenyltetrahydro-1,3-oxazin-2-one derivative and pharmaceutical composition containing the same” (Nikken Chemicals Co., LTD, priority 1996, dated 2001)

Columns and labels:
rat neutrophils = experiment: Inhibition of super oxide anion release from rat neutrophils (A23187-stimulated chemiluminescence); type: cell-based, rat (Wister); details: Neutrophil, stimulated with 0.3 μM calcium ionophore A23187, read-out: Inhibitory action of super oxide anion release from rat neutrophils IC50
Method: The release of super oxide anions was measured so as to study the inhibitory effects of the compound on inflammatory leukocytes, that is, neutrophils.
Blood sample was obtained from Wister rats anesthetized with ether. It was superposed on a blood cell separation solution (Polymorphoprep 1.113, made by Naicomet Co. (phonetic)) and the neutrophils were separated by centrifugation. The neutrophils were resuspended in a Hank's balanced salt solution at a concentration of 0.5×10^4 cell/ml. 0.1 mM of Lusigenin and the test substance dissolved in DMSO were added to 2 ml of the cell-suspension. The chemiluminescence generated by stimulation of 0.3 μM calcium ionophore A23187 was measured by a chemiluminescence reader so as to evaluate the release of super oxide anions.

Type IV PDE = experiment: PDE inhibitory activity, type IV isozyme (3H-cAMP hydrolysis); type: biochemical; details: partially purified from rat neutrophils, 30° C., 30 minutes
Method in brief: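 Enzyme partially purified from rat neutrophils by ion-exchange chromatography. Reaction in 50 mM Tris-HCl with 5 mM MgCl2, 30 min at 30° C, stopped by boiling; product converted by 5'-nucleotidase and 3H-adenosine counted after ion-exchange separation. IC50 given in M.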

[1] = system: antigen-induced bronchospasm in guinea pig; experiment: Inhibitory effect on antigen-induced bronchospasm (Konzett-Roessler, ovalbumin-sensitized); type: in vivo, guinea pig (Hartley male); details: Cavia porcellus; intravenous, 10 minutes before antigen (0.2 mg/kg OA i.v.); read-out: Action for suppressing antigen-induced bronchospasms ED50
Method: A Hartley male guinea pig was sensitized by intramuscular administration of […] Ovalbumin (OA) on first day and fourth day, and used after 24th day. A trachial canula was introduced in the guinea pig anesthetized with pentobarbital and artificial ventilation was performed 25 to 29 days after the first sensitization. The overflow of the ventilation was measured by the Konzett-Roessler method while 0.2 mg/kg OA were administered intravenously. The test compound was dissolved in polyethylene glycol 400 and intravenously administered 10 minutes before administration of the antigens.

**Q.** COc1ccc(C2CCNC(=O)O2)cc1OC (centres unmarked) [Compound No. 1, 6-(3,4-dimethoxyphenyl)-3,4,5,6-tetrahydro-2H-1,3-oxazin-2-one] was tested. Which IC50 (rat neutrophils) did it give?
**A.** Its IC50 is 8.8 µM.

**Q.** And the IC50 (Type IV PDE)?
**A.** Its IC50 is 10 µM.

**Q.** For COc1ccc(C2CCNC(=O)O2)cc1OC1CCCC1 (centres unmarked) [Compound No. 2, 6-(3-cyclopentyloxy-4-methoxyphenyl)-3,4,5,6-tetrahydro-2H-1,3-oxazin-2-one], which ED50 [1] is on record?
**A.** Its ED50 is 0.23 mg/kg.

**Q.** And the IC50 (rat neutrophils)?
**A.** Its IC50 is 0.55 µM.

**Q.** And the IC50 (Type IV PDE)?
**A.** Its IC50 is 1.2 µM.

**Q.** Which ED50 [1] does the source give for COc1ccc(C2(C)CCNC(=O)O2)cc1OC (centres unmarked) [Compound No. 5, 6-(3,4-dimethoxyphenyl)-6-methyl-3,4,5,6-tetrahydro-2H-1,3-oxazin-2-one] here?
**A.** The ED50 was 0.3 mg/kg.

**Q.** What about the IC50 (rat neutrophils) of the same molecule?
**A.** The IC50 was 2.4 µM.

**Q.** What about the IC50 (Type IV PDE) of the same molecule?
**A.** The IC50 was 6.8 µM.

**Q.** With COc1ccc(C2CCN(C)C(=O)O2)cc1OC (centres unmarked) [Compound No. 8, 6-(3,4-dimethoxyphenyl)-3-methyl-3,4,5,6-tetrahydro-2H-1,3-oxazin-2-one] as the molecule, how does the IC50 (rat neutrophils) read?
**A.** Its IC50 is 4.1 µM.

**Q.** And the IC50 (Type IV PDE)?
**A.** Its IC50 is 19 µM.

**Q.** Which IC50 (rat neutrophils) does the source give for COc1ccc(C2CCN(Cc3ccccc3)C(=O)O2)cc1OC (centres unmarked) [Compound No. 9, 3-benzyl-6-(3 4-dimethoxyphenyl)-3,4,5,6-tetrahydro-2H-1,3-oxazin-2-one] here?
**A.** The IC50 was 2.3 µM.

**Q.** What about the IC50 (Type IV PDE) of the same molecule?
**A.** The IC50 was 22 µM.

**Q.** Which ED50 [1] does the source give for COc1ccc(C2CCN(C)C(=O)O2)cc1OC1CCCC1 (centres unmarked) [Compound No. 10, 6-(3-Cyclopentyloxy-4-methoxyphenyl)-3-methyl-3,4,5,6-tetrahydro-2H-1,3-oxazin-2-one] here?
**A.** The ED50 was 0.95 mg/kg.

**Q.** What about the IC50 (rat neutrophils) of the same molecule?
**A.** The IC50 was 0.09 µM.

**Q.** What about the IC50 (Type IV PDE) of the same molecule?
**A.** Its IC50 is 1.3 µM.

**Q.** Which results are given for COc1ccc(C2CCN(Cc3ccc(Br)cc3)C(=O)O2)cc1OC1CCCC1 (centres unmarked) [Compound No. 11, 3-(4-bromobenzyl)-6-(3-cyclopentyloxy-4-methoxyphenyl)-3,4,5,6-tetrahydro-2H-1,3-oxazin-2-one]?
**A.** ED50 [1]: 3.1 mg/kg; IC50 (rat neutrophils): 0.05 µM; IC50 (Type IV PDE): 1.4 µM

**Q.** Which results are given for COc1ccc(C2CCNC(=O)O2)cc1OCC1CCC1 (centres unmarked) [Compound No. 61, 6-(3-cyclobutylmethyloxy-4-methoxyphenyl)-3,4,5,6-tetrahydro-2H-1,3-oxazin-2-one]?
**A.** ED50 [1]: 1.84 mg/kg; IC50 (Type IV PDE): 3.2 µM

**Q.** For COc1ccc(C2CCNC(=O)O2)cc1OCC(C)C (centres unmarked) [Compound No. 65, 6-[4-methoxy-3-(2-methylpropoxy)phenyl]-3,4,5,6-tetrahydro-2H-1,3-oxazin-2-one], which ED50 [1] is on record?
**A.** Its ED50 is 0.22 mg/kg.

**Q.** And the IC50 (Type IV PDE)?
**A.** Its IC50 is 2.2 µM.

**Q.** Which ED50 [1] does the source give for COc1ccc(C2CCN(C)C(=O)O2)cc1OCC(C)C (centres unmarked) [Compound No. 66, 6-[4-methoxy-3-(2-methylpropoxy)phenyl]-3-methyl-3,4,5,6-tetrahydro-2H-1,3-oxazin-2-one] here?
**A.** Its ED50 is 0.051 mg/kg.

**Q.** What about the IC50 (Type IV PDE) of the same molecule?
**A.** Its IC50 is 3.8 µM.

**Q.** Which ED50 [1] does the source give for CCN1CCC(c2ccc(OC)c(OC3Cc4ccccc4C3)c2)OC1=O (centres unmarked) [Compound No. 71, 3-ethyl-6-[3-(2-indanyloxy)-4-methoxyphenyl]-3,4,5,6-tetrahydro-2H-1,3-oxazin-2-one] here?
**A.** Its ED50 is 2.67 mg/kg.

**Q.** What about the IC50 (Type IV PDE) of the same molecule?
**A.** The IC50 was 0.31 µM.

**Q.** Which ED50 [1] does the source give for COc1ccc(C2CCNC(=O)O2)cc1OCC1CCCC1 (centres unmarked) [Compound No. 76, 6-(3-cyclopentylmethyloxy-4-methoxyphenyl)-3,4,5,6-tetrahydro-2H-1,3-oxazin-2-one] here?
**A.** Its ED50 is 0.27 mg/kg.

**Q.** What about the IC50 (Type IV PDE) of the same molecule?
**A.** Its IC50 is 2.9 µM.

**Q.** What does the source list for COc1ccc(C2(C)CCNC(=O)O2)cc1OCC(C)C (centres unmarked) [Compound No. 81, 6-[4-methoxy-3-(2-methylpropoxy)phenyl]-6-methyl-3,4,5,6-tetrahydro-2H-1,3-oxazin-2-one]?
**A.** ED50 [1]: 0.028 mg/kg; IC50 (Type IV PDE): 1.3 µM

**Q.** With COc1ccc(C2(C)CCN(C)C(=O)O2)cc1OCC(C)C (centres unmarked) [Compound No. 82, 3,6-dimethyl-6-[4-methoxy-3-(2-methylpropoxy)phenyl]-3,4,5,6-tetrahydro-2H-1,3-oxazin-2-one] as the molecule, how does the ED50 [1] read?
**A.** Its ED50 is 0.045 mg/kg.

**Q.** And the IC50 (Type IV PDE)?
**A.** The IC50 was 1.9 µM.
